“Also recorded” adds a separate entry of the source. Counter-ions that a name gives are not always drawn. Like-named read-outs stand apart in the source and are kept apart here.
What was measured:
lipid metabolism = assay: Effects of diphosphonates on lipid metabolism in normal rats (serum lipids, α/β cholesterol); format: in vivo, male Wistar rats; conditions: for change in vivo at 200 mg/kg/day: Rattus norvegicus, po; for increased HDL lipids, especially HDL cholesterol: normal rats
Procedure: Effects of diphosphonates of formula (I) on lipid metabolism in normal rats Groups of 4 to 5 normal male Wistar rats, weighing about 200 g were treated with diphosphonates (200 mg/kg/day) p.o. for 4 to 21 days. Water soluble compounds were given in solution in 24 mM bicarbonate buffer. Lipid soluble compounds were given in corn oil. The rats were weighed, sacrificed by decapitation (under light ether anesthesia) after overnight fasting. Blood was collected and serum used for analysis. The following blood parameters reflecting changes in lipid metabolism are reported: […]
free fatty acids measured according to W. G. Duncombe (Clin. Acta 9, 122, 1964) triglycerides enzymatic method (Boehringer Mannheim Kit 126 012) phospholipids: molybdate/vanadate reaction (Boehringer Mannheim Kit 124 974) β-lipoprotein cholesterol was measured after heparin, CaCl2 precipitation according to M. Burstein et al. (La Presse Medicale 43, 974, 1958) and to D. Watson (Clin. Chim. Acta 5, 637, 1960).
(§1) In above Table IV, results are given as % control values. Except for serum calcium, values which differ from control values by less than 15% are considered as non significant (NS).
Serum free fatty acids, triglycerides and phospholipids were measured in normal rats (N) and rats previously fed a cholesterol diet for 10 days (C.F.) Serum α/β cholesterol, total lipids and cholesterol of liver and aorta were determined in normal rats (N) and rats which had previously been fed on high cholesterol diet (C.F.)

tissue cholesterol = assay: Effects in cholesterol fed rats (serum, liver and aorta lipids); format: in vivo; conditions: for change in vivo at 200 mg/kg/day: Rattus norvegicus; for liver total lipids and/or liver cholesterol: cholesterol fed rats
Procedure: Effects of diphosphonates of formula (I) in cholesterol fed rats
In order to increase tissue cholesterol, especially liver, rats were fed a high fat-high cholesterol diet for 10 days to 3 months, with the following diet composition: casein 20%, butter 37%, cellulose 9.1%, dextrose 18,9%, cholesterol 4.5%, sodium cholate 1.8%, minerals 7.3%, vitamins 1%, choline 0.4%.
The rats were then fed normal food and were treated for 10 days to 3 months with different compounds (200 mg/kg/day). Serum parameters described above were measured. Liver and aorta lipids were extracted according to J. Folch et al (J. Biochem. 226, 497, 1957). Total lipids were determined by the sulfophosphovanillic reaction (see N. Zolner and K. Kirsch, Z. Ges. exp. Med. 135, 545, 1962) and cholesterol by the Liebermann-Burchard reaction or appropriate enzymatic reaction.
as §1
Serum free fatty acids, triglycerides and phospholipids were measured in normal rats (N) and rats previously fed a cholesterol diet for 10 days (C.F.)
Serum α/β cholesterol, total lipids and cholesterol of liver and aorta were determined in normal rats (N) and rats which had previously been fed on high cholesterol diet (C.F.)

[1] = test system: alpha/beta cholesterol ratio; assay: Comparison of clofibrate, gemfibrozil and fenofibrate to compound 16: alpha/beta cholesterol ratio in normal Wistar rats; format: in vivo; conditions: 100 mg/kg for 10 days, n = 5
Procedure: It should be noted that these diphosphonate compounds are different and novel in comparison to the classical hypolipidemic compounds as illustrated in Table V. The diphosphonate ester used for comparison was the only one to increase the alpha/beta cholesterol ratio in control rats.
Each drug was administered at 100 mg/kg for 10 days

[2] = test system: aorta and kidney calcification; conditions: hypercalceamic animal model; cited from earlier work
serum calcium = assay: Effects of acid and salt form of diphosphonates in hypercalceamic rats; format: in vivo, male Wistar rats; conditions: for Serum Calcium (% control values): 15% NS limit does not apply; for decrease of serum calcium: about 50 mg/kg/day in drinking water, 15 days
Procedure: Effects of acid and salt form of diphosphonates of formula (I) in hypercalceamic rats
To verify this activity the acid form of compound 4 and is monosodium salt counterpart (compound 10) were also tested by using a protol similar to the one described by Potokar (see above). Briefly, groups of 4 male Wistar rats received acid or salt form of compound 4 as 0.05% solution in drinking water corresponding to about 50 mg/kg/day. The rats were treated with the compounds for 15 days.
Serum calcium was measured in hypercalceamic rats.

Oral LD50 toxicity = format: in vivo; conditions: in vivo; oral
Text: Following the extensive pharmacological screening of these compounds, using over 2000 animals, those showing the most potential were then subjected to toxicity testing for further selection relative to their activity/toxicity risk profiles
By way of LD50 (Lethal Dose 50) the methyl diphosphonates were discovered to have a significant lower degree of toxicity. […] This represents a significant six fold difference in toxicity.

[3] = normal rats (N), 200 mg/kg/day p.o., read-out: Serum Chol. α/β (% control values)
[4] = normal rats (N), 200 mg/kg/day p.o., read-out: Serum Free Fatty Acids (% control values)
[5] = normal rats (N), 200 mg/kg/day p.o., read-out: Serum Phospholipids (% control values)
[6] = normal rats (N), 200 mg/kg/day p.o., read-out: Serum Triglycerides (% control values)
[7] = cholesterol fed rats (C.F), 200 mg/kg/day, read-out: Liver Chol. (% control values)
[8] = cholesterol fed rats (C.F), 200 mg/kg/day, read-out: Liver Total Lipids (% control values)
[9] = normal rats (N), 200 mg/kg/day p.o.
[10] = cholesterol fed rats (C.F), 200 mg/kg/day
[11] = normal rats (N), 200 mg/kg/day p.o., 200 mg/kg/day
[12] = normal rats (N), 200 mg/kg/day p.o., monosodium salt, 200 mg/kg/day

SMILES | change in vivo at 200 mg/kg/day (lipid metabolism; [3]) [%] | change in vivo at 200 mg/kg/day (lipid metabolism; [4]) [%] | change in vivo at 200 mg/kg/day (lipid metabolism; [5]) [%] | change in vivo at 200 mg/kg/day (lipid metabolism; [6]) [%] | increase in serum phospholipid (lipid metabolism; rats) | change in vivo at 200 mg/kg/day (tissue cholesterol; [7]) [%] | change in vivo at 200 mg/kg/day (tissue cholesterol; [8]) [%] | liver total lipids and/or liver cholesterol (tissue cholesterol) | Serum Chol. α/β (% control values) (tissue cholesterol; [10]) | decreases in serum triglycerides (lipid metabolism; rats) | Aorta Chol. (% control values) (tissue cholesterol; [10]) | Aorta Total Lipids (% control values) (tissue cholesterol; [10]) | Serum Phospholipids (% control values) (tissue cholesterol; [10]) | Serum Triglycerides (% control values) (tissue cholesterol; [10]) | also measured
COP(=O)(OC)C(Cc1ccc(Cl)cc1)P(=O)(OC)OC [Compound 35] | 75 | -44 | 51 | < 15 | found to increase; also recorded: at least two fold the most active | -19 | < 15 | decreased significantly |  |  |  |  |  |  | increased HDL lipids, especially HDL cholesterol (lipid metabolism): observed most dramatically; α-cholesterol/β-cholesterol ratio / lipoprotein cholesterol (lipid metabolism; rats): highly significant activity
Cc1ccc(C)c(OCCCC(C)(C)C(=O)O)c1 [Gemfibrozil] |  |  |  |  |  |  |  |  |  |  |  |  |  |  | alpha/beta Cholesterol Ratio [1]: 5.33 ± 0.31
COP(=O)(OC)OC(c1ccccc1)P(=O)(OC)OC (stereo not drawn) [Compound 13, dimethyl α(dimethoxyphosphinyl) benzylphosphate] |  |  |  |  | found to increase |  |  | decreased significantly | +25% |  |  |  |  |  | Serum Free Fatty Acids (% control values) (lipid metabolism; [9]): -21%; Serum Phospholipids (% control values) (lipid metabolism; [9]): +21%; Serum Triglycerides (% control values) (lipid metabolism; [9]): +32%; Liver Chol. (% control values) (tissue cholesterol; [10]): -51%; Liver Total Lipids (% control values) (tissue cholesterol; [10]): -18%
O=P(O)(O)C(Cl)(Cl)P(=O)(O)O [dichloromethylene diphosphonate] |  |  |  |  |  |  |  |  |  |  |  |  |  |  | aorta and kidney calcification [2]: inhibit aorta and kidney calcification; vitamin D-induced rise in plasma calcium [2]: prevent the vitamin D-induced rise in plasma calcium
COP(=O)(OC)C(O)(c1ccc(C(=O)c2ccc(Cl)cc2)cc1)P(=O)(OC)OC [Compound 9, Tetramethyl 1[4(4'-chlorobenzoyl)-phenyl]methane 1-hydroxy 1,1-diphosphonate] |  | -38 | < 15 | -16 |  | < 15 | -25 | decreased significantly | +51% | Significant decreases | -39% | NS (Except for serum calcium, values which differ from control values by less than 15% are considered as non significant (NS)) | +36% | -17% | increased HDL lipids, especially HDL cholesterol (lipid metabolism): observed most dramatically; α-cholesterol/β-cholesterol ratio / lipoprotein cholesterol (lipid metabolism; rats): highly significant activity; Serum Free Fatty Acids (% control values) (tissue cholesterol; [10]): -52%
CCOP(=O)(OCC)C(Cc1ccc(Cl)cc1)P(=O)(OCC)OCC [Compound 27] |  | -44 | < 15 | -16 |  | < 15 | < 15 | decreased significantly | -35% | Significant decreases | NS (Except for serum calcium, values which differ from control values by less than 15% are considered as non significant (NS)) | -60% | NS (Except for serum calcium, values which differ from control values by less than 15% are considered as non significant (NS)) | -24% | Serum Free Fatty Acids (% control values) (tissue cholesterol; [10]): -65%
COP(=O)(OC)OC(C(C)(C)c1ccc(Cl)cc1)P(=O)(OC)OC (centres unmarked) [Compound 21, Dimethyl 1-(dimethoxyphosphinyl) 2,2-dimethyl 2(p-chlorophenyl) ethylphosphate] | < 15 |  | 16 | -38 | found to increase | -46 | -36 | decreased significantly | -32% | Significant decreases |  |  | +24% | +28% | 
O=P(O)(O)C(O)(c1ccc(Cl)cc1)P(=O)(O)O [4 Acid, hydroxy (p-chlorophenyl) methylenediphosphonic acid] | < 15 |  | < 15 |  |  | < 15 | < 15 |  |  | Significant decreases | NS (Except for serum calcium, values which differ from control values by less than 15% are considered as non significant (NS)) | NS (Except for serum calcium, values which differ from control values by less than 15% are considered as non significant (NS)) |  |  | Serum Free Fatty Acids (% control values) (lipid metabolism; [11]): -17%; Serum Triglycerides (% control values) (lipid metabolism; [11]): -29%; property to change lipid metabolism / increase HDL (lipid metabolism; rats): do not have these properties; Serum Calcium (% control values) (serum calcium): -20%; decrease of serum calcium (serum calcium; listed as acid form of compound 4): 20%
CCOP(=O)(OCC)OC(c1ccc(Cl)cc1)P(=O)(OCC)OCC (centres unmarked) [Compound 24] | < 15 |  | < 15 | < 15 |  |  |  |  |  |  |  |  |  |  | LD50 (Oral LD50 toxicity): 547 mg/kg
COP(=O)(OC)C(O)(C(C)(C)Oc1ccc(Cl)cc1)P(=O)(OC)OC [Compound 7, Tetramethyl 2,2-dimethyl 2(p-chlorophenoxy) ethane 1-hydroxy 1,1-diphosphonate] |  | 28 | 26 | -33 | found to increase | -25 | < 15 | decreased significantly | +27% | Significant decreases | -19% | -27% | NS (Except for serum calcium, values which differ from control values by less than 15% are considered as non significant (NS)) | NS (Except for serum calcium, values which differ from control values by less than 15% are considered as non significant (NS)) | Serum Free Fatty Acids (% control values) (tissue cholesterol; [10]): -40%
CC(C)OC(=O)C(C)(C)Oc1ccc(C(=O)c2ccc(Cl)cc2)cc1 [Fenofibrate] |  |  |  |  |  |  |  |  |  |  |  |  |  |  | alpha/beta Cholesterol Ratio [1]: 1.19 ± 0.20
O=P(O)(O)C(O)(c1ccc(Cl)cc1)P(=O)(O)O [Compound 10, 1-hydroxy 1 (p-chlorophenyl)methane 1,1-diphosphonic acid, monosodium salt] |  |  |  |  |  |  |  |  |  |  |  |  |  |  | Serum Free Fatty Acids (% control values) (lipid metabolism; [12]): -27%; Serum Triglycerides (% control values) (lipid metabolism; [12]): -17%; Serum Calcium (% control values) (serum calcium; monosodium salt): -14%; decrease of serum calcium (serum calcium; listed as salt form of compound 4, monosodium salt): 14%
